Results on four molecules are retold here after patent publication US8071103B2, “Pharmaceutical composition comprising a human GLP-1 mimetibody” (Centocor, Inc., priority 2006, dated 2011).

Experiment [1] has as its system db/db mice. Briefly: Blood glucose after intravenous dosing in db/db mice. To be noted: 0.5-4 hours post-dosing. The class given is in vivo. The method, then:
Blood glucose was monitored 0.5, 1, 2, 3, and 4 hours post-dosing.

The test system of experiment [2] is normal dogs. The experiment in a line: Gastric emptying in normal dogs. The format is in vivo, beagle dogs. The following applies: relative to vehicle. The method, then:
A gastric cannula was surgically implanted into female beagle dogs (10-15 kg) under general anesthesia and allowed to recover for at least 2 weeks. Dogs were fasted for 24 hours after which water was freely available. The gastric cannula was opened and gastric juice and food remnants were removed with 40-50 ml of lukewarm water. Groups of six dogs were dosed subcutaneously with lidamidine, an alpha2 agonist (0.63 mg/kg), 60 minutes before the meal, a positive control for delay of gastric emptying. […] Five minutes before the meal, the gastric cannula was opened to determine the amount of fluid present in stomach for baseline value and fluid was promptly reintroduced. Then a test meal consisting of 250 ml of a glucose solution (5 g/1) was administered via the cannula and allowed to remain in the stomach for 30 minutes. Gastric contents were drained from the stomach to measure total volume after 30 minutes. […] Glucose concentrations were evaluated for collected samples and used to determine the absolute amount of glucose remaining in the stomach at each time point. The percentage of glucose retained in the stomach was determined from the starting value and the concentration of glucose at each time point and plotted as a function of time. The time at which 50% of the gastric contents were retained was determined by fitting of the curves to a single exponential.

Experiment [3] concerns RINm cells. The experiment in a line: Insulin secretion in RINm cells. The format is cell-based. The following applies: peptides 0-5 nM, mimetibodies 5 or 50 nM, ELISA. The protocol:
GLP-1 MMB causes insulin secretion in RINm cells. To test the effect of GLP-1 MMB in insulin secretion, RINm cells were treated with increasing concentrations of GLP-1 (7-36) peptide (0-5 nM), exendin-4 peptide (0-5 nM), or various GLP-1 mimetibodies (5 or 50 nM) and the amount of insulin secreted was measured via ELISA. All GLP-1 MMBs tested had activities in stimulating insulin secretion in RINm cells (FIG. 6).

The target in experiment [4] is T1, GLP-1 receptor (Mus musculus, UniProt O35659).
T1 construct: Male GLP-1R−/− and age matched wild type mice; from tissue; host or cells: whole animal (wild type mice; GLP-1R-/- mice as receptor-free control)
T1 sequence (O35659 22-463): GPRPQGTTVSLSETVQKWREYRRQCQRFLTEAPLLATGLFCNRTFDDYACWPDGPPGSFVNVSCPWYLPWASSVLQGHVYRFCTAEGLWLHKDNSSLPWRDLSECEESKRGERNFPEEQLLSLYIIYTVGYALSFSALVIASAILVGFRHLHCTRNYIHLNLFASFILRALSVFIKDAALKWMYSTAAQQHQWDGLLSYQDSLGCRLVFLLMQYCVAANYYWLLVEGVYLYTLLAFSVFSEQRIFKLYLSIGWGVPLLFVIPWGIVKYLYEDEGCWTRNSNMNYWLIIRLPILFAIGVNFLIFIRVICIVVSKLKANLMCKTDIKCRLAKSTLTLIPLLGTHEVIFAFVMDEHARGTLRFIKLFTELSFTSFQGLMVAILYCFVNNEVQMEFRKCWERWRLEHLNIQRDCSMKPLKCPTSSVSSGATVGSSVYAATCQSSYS
Briefly: Food intake in GLP-1R−/− and wild type mice. The class given is in vivo. To be noted: wild type mice, single iv, GLP-1 MMB 1 mg/kg, exendin-4 0.07 mg/kg. An excerpt:
(§1) Materials/Methods: Animals: Male GLP-1R−/− and age matched wild type mice were randomized into three treatment groups (n=5) based on body weight and fasting blood glucose.

In experiment [5] the test system is GLP-1 receptor. The experiment in a line: Food intake in GLP-1R−/− and wild type mice. The class given is in vivo. To be noted: GLP-1R−/− mice, single iv, GLP-1 MMB 1 mg/kg, exendin-4 0.07 mg/kg.
Description: as §1

Experiment [6] deals with T1, GLP-1 receptor. Briefly: Glucose tolerance test (ipGTT) in GLP-1R−/− and wild type mice. The format is in vivo. To be noted: wild type mice, single iv, GLP-1 MMB 1 mg/kg, exendin-4 0.07 mg/kg. The protocol: as §1
Glucose tolerance test (ipGTT): Mice were fasted overnight and dosed intravenously as discussed above. Fasting glucose was measured via tail snips using a hand-held glucometer (LifeScan). At t=0 min, mice were dosed i.p. with D-glucose (1.0 mg/g, Sigma) and blood glucose was measured after 15, 30, 60, 90 and 120 min using tail vein blood

Experiment [7] concerns the target T1, GLP-1 receptor. The experiment in a line: Gastric emptying in GLP-1R−/− and wild type mice. The format is in vivo. The following applies: wild type mice, single iv, GLP-1 MMB 1 mg/kg, exendin-4 0.07 mg/kg. The protocol: as §1
(§2) Gastric Emptying: Mice were fasted overnight. The next morning mice were re-fed for 1 h, food intake was recorded and the mice were deprived of food for the rest of the study. Mice were dosed intravenously as discussed above. Two hours post-dosing mice were euthenized.
(§3) The stomach was exposed by laparotomy, ligated at both the pylorus and cardia and removed.
(§4) The stomach content wet weight was measured. Equation 1 was used to calculate the percent of food remaining in the stomach. (Stomach Content Wet Weight (g)/Food Intake (g))*100 Equation (1)

The subject of experiment [8] is GLP-1 receptor. Briefly: Gastric emptying in GLP-1R−/− and wild type mice. The format is in vivo. The following applies: GLP-1R−/− mice, single iv, GLP-1 MMB 1 mg/kg, exendin-4 0.07 mg/kg. The protocol: as §1, §2, §3, §4

Where no end group is shown, it is not given here.

For the molecule `CC[C@H](C)[C@H](NC(=O)[C@H](Cc1ccccc1)NC(=O)[C@H](CCC(=O)O)NC(=O)[C@H](CCCCN)NC(=O)[C@H](C)NC(=O)[C@H](C)NC(=O)[C@H](CCC(N)=O)NC(=O)CNC(=O)[C@H](CCC(=O)O)NC(=O)[C@H](CC(C)C)NC(=O)[C@H](Cc1ccc(O)cc1)NC(=O)[C@H](CO)NC(=O)[C@H](CO)NC(=O)[C@@H](NC(=O)[C@H](CC(=O)O)NC(=O)[C@H](CO)NC(=O)[C@@H](NC(=O)[C@H](Cc1ccccc1)NC(=O)[C@@H](NC(=O)CNC(=O)[C@H](CCC(=O)O)NC(=O)[C@H](C)NC(=O)[C@@H](N)Cc1c[nH]cn1)[C@@H](C)O)[C@@H](C)O)C(C)C)C(=O)N[C@@H](C)C(=O)N[C@@H](Cc1c[nH]c2ccccc12)C(=O)N[C@@H](CC(C)C)C(=O)N[C@H](C(=O)N[C@@H](CCCCN)C(=O)NCC(=O)N[C@@H](CCCNC(=N)N)C(N)=O)C(C)C` [GLP-1 peptide], in experiment [1], the blood glucose result is on record as “lowered blood glucose at 30 minutes”.
For the molecule `CN=C(N)NC(=O)Nc1c(C)cccc1C` [lidamidine], the gastric emptying entry in experiment [2] is on record as “significant delay in gastric emptying”.
As for “GLP-1 (7-36) peptide: wide-type GLP-1 (7-36) peptide (HAEGTFTSDVSSYLEGQAAKEFIAWLVKGR; ends and bridges not checked; UniProt P01275 98-127, looked up)”, the “insulin secretion in RINm cells” value in experiment [3] is on record as “stimulates insulin release”.
Turning to exendin-4 [reference compound], in experiment [3], the “insulin secretion in RINm cells” value is “stimulates insulin release”. For the same molecule, in experiment [4], the “24 hour cumulative food intake compared to CNTO1996” value was “statistically significant reduction”. Moreover, the food intake result in experiment [5] is “no effect”. In addition, in experiment [6], the “AUC of ipGTT” value was “statistically significant reduction”. Also, the “stomach content (percent of food remaining) 2 h after dosing compared to CNTO1996” value in experiment [7] is “statistically significant increase”. For the same molecule, in experiment [8], the gastric emptying result is recorded as “no effect”.
